Measurements as given in US10407467B2, “Polymyxin derivatives and their use in combination therapy together with different antibiotics” (priority 2013, dated 2019).
Counter-ions that a name gives are not always drawn. Bridge positions count the residues as written; N and C are the ends. Square brackets hold non-standard residues; d marks the D form. Peptide text beside a SMILES is read from it. * marks the point of attachment. ξ: configuration not given here. Thr(3ξ) = CC(O)[C@H](N)C(=O)O; X11 = O=C(C(O)c1cccc(Br)c1)*; X13 = O=C(CC[C@@H]1CCCN1)*; X9 = CC(C)[C@H](N)CCC(=O)*; Dab = NCC[C@H](N)C(=O)O; X14 = CC(C)(N)CCC(=O)*; βAla = NCCC(=O)O

What was measured:
Format in all cases: cell-based
Acinetobacter baumannii [1] = test: MIC, compound in combination with a second agent (broth microdilution); details: 1:1 (wt:wt) combination with Rifampicin, MIC = total drug concentration; for MIC A. baumannii CCUG57249: strain CCUG57249; for MIC A. baumannii NCTC 13423: strain NCTC 13423; for MIC A. baumannii NCTC 13424: strain NCTC 13424
Summary of the method: (§1)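 Susceptibility was tested on up to four strains of each pathogen with the compound paired 1:1 by weight alongside another antibacterial. Values count both components together and use the lower duplicate if replicates agreed within 2-fold.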

Klebsiella pneumoniae [2] = test: as above; details: 1:1 (wt:wt) combination with Rifampicin, MIC = total drug concentration; for MIC K. pneumoniae ATCC-BAA-2146: strain ATCC-BAA-2146; for MIC K. pneumoniae CCUG-59348: strain CCUG-59348; for MIC K. pneumoniae NCTC 13438: strain NCTC 13438
Summary of the method: as §1

Pseudomonas aeruginosa [3] = test: as above; details: 1:1 (wt:wt) combination with Rifampicin, MIC = total drug concentration; for MIC P. aeruginosa ATCC 27853: strain ATCC 27853; for MIC P. aeruginosa ATCC CRM-9027: strain ATCC CRM-9027; for MIC P. aeruginosa ATCC-47: strain ATCC-47; for MIC P. aeruginosa CCUG 59626: strain CCUG 59626
Summary of the method: as §1

Escherichia coli [4] = test: as above; details: 1:1 (wt:wt) combination with Rifampicin, MIC = total drug concentration; for MIC E. coli ATCC25922: strain ATCC25922; for MIC E. coli NCTC9001: strain NCTC9001
Summary of the method: as §1

Acinetobacter baumannii [5] = test: MIC, sole activity (no second agent); details: in the absence of Rifampicin; for MIC A. baumannii ATCCBAA-747: strain ATCCBAA-747; for MIC A. baumannii NCTC 13423: strain NCTC13423
Summary of the method: (§2)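 First, isolated colonies grown 18-24 hours on Mueller-Hinton agar were suspended to 0.5 McFarland; next, up to four strains per pathogen were tested in duplicate in cation-adjusted MHB; finally, the lower concordant value or modal repeat value was reported against Polymyxin B.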

Klebsiella pneumoniae [6] = test: MIC, sole activity (no second agent); details: in the absence of Rifampicin; for MIC K. pneumoniae ATCC 4352: strain ATCC 4352; for MIC K. pneumoniae ATCC-BAA2146: strain ATCC-BAA2146; for MIC K. pneumoniae CCUG-59348: strain CCUG-59348; for MIC K. pneumoniae NCTC-13438: strain NCTC-13438
Summary of the method: as §2

Pseudomonas aeruginosa [7] = test: MIC, sole activity (no second agent); details: in the absence of Rifampicin; for MIC P. aeruginosa ATCC 27853: strain ATCC27853; for MIC P. aeruginosa ATCCCRM-9027: strain ATCCCRM-9027
Summary of the method: as §2

Escherichia coli [8] = test: MIC, sole activity (no second agent); details: in the absence of Rifampicin; for MIC E. coli ATCC25922: strain ATCC25922; for MIC E. coli NCTC9001: strain NCTC9001
Summary of the method: as §2

SMILES	MIC A. baumannii CCUG57249 (Acinetobacter baumannii [1])	MIC A. baumannii NCTC 13423 (Acinetobacter baumannii [1])	MIC A. baumannii NCTC 13424 (Acinetobacter baumannii [1])	MIC K. pneumoniae ATCC-BAA-2146 (Klebsiella pneumoniae [2])	MIC K. pneumoniae CCUG-59348 (Klebsiella pneumoniae [2])	MIC K. pneumoniae NCTC 13438 (Klebsiella pneumoniae [2])	MIC P. aeruginosa ATCC 27853 (Pseudomonas aeruginosa [3])	MIC P. aeruginosa ATCC CRM-9027 (Pseudomonas aeruginosa [3])	MIC P. aeruginosa ATCC-47 (Pseudomonas aeruginosa [3])	MIC P. aeruginosa CCUG 59626 (Pseudomonas aeruginosa [3])	MIC E. coli ATCC25922 (Escherichia coli [4])	MIC E. coli NCTC9001 (Escherichia coli [4])	MIC A. baumannii ATCCBAA-747 (Acinetobacter baumannii [5])	MIC K. pneumoniae ATCC 4352 (Klebsiella pneumoniae [6])	MIC K. pneumoniae ATCC-BAA2146 (Klebsiella pneumoniae [6])	MIC K. pneumoniae CCUG-59348 (Klebsiella pneumoniae [6])	MIC K. pneumoniae NCTC-13438 (Klebsiella pneumoniae [6])	MIC P. aeruginosa ATCC 27853 (Pseudomonas aeruginosa [7])	MIC E. coli ATCC25922 (Escherichia coli [8])	MIC E. coli NCTC9001 (Escherichia coli [8])	also measured
CC(C)C[C@@H]1NC(=O)[C@@H](Cc2ccccc2)NC(=O)[C@H](CCN)NC(=O)[C@@H](NC(=O)[C@H](CCN)NC(=O)[C@@H](NC(=O)C(O)c2cccc(Br)c2)C(C)O)CCNC(=O)[C@H](C(C)O)NC(=O)[C@H](CCN)NC(=O)[C@H](CCN)NC1=O (stereo partly drawn) [Example 18] (X11-[Thr(3ξ)][Dab][Dab][Dab][dF]L[Dab][Dab][Thr(3ξ)]; lactam 3-C)	≤0.06 micrograms/mL	0.125 micrograms/mL	0.125 micrograms/mL	0.5 micrograms/mL	2 micrograms/mL	0.5 micrograms/mL	0.25 micrograms/mL	1 micrograms/mL	0.5 micrograms/mL	0.25 micrograms/mL	0.125 micrograms/mL	1 micrograms/mL									MIC K. pneumoniae ATCC 4352 (Klebsiella pneumoniae [2]; strain ATCC 4352): 0.125 micrograms/mL
CC(C)C[C@@H]1NC(=O)[C@@H](CC(C)C)NC(=O)[C@H](CCN)NC(=O)[C@@H](NC(=O)[C@H](CCN)NC(=O)[C@@H](NC(=O)C(O)C2CCCCC2)C(C)O)CCNC(=O)[C@H](C(C)O)NC(=O)[C@H](CCN)NC(=O)[C@H](CCN)NC1=O (single isomer, unassigned; isomer 1) [Example 31, 2(RS)-(2-Hydroxy-2-cyclohexyl)ethanoyl polymyxin E nonapeptide, TFA salt. Isomer 1]	0.25 micrograms/mL	0.25 micrograms/mL	0.5 micrograms/mL	2 micrograms/mL	2 micrograms/mL	1 micrograms/mL	0.5 micrograms/mL	0.5 micrograms/mL	0.5 micrograms/mL	0.25 micrograms/mL	0.25 micrograms/mL	0.5 micrograms/mL									MIC A. baumannii ATCC BAA-747 (Acinetobacter baumannii [1]; strain ATCC BAA-747): 0.25 micrograms/mL
CC(C)C[C@@H]1NC(=O)[C@@H](Cc2ccccc2)NC(=O)[C@H](CCN)NC(=O)[C@@H](NC(=O)[C@H](CCN)NC(=O)[C@@H](NC(=O)CCN)C(C)O)CCNC(=O)[C@H](C(C)O)NC(=O)[C@H](CCN)NC(=O)[C@H](CCN)NC1=O (stereo partly drawn) [Example 3, 3-Aminopropanoyl polymyxin B nonapeptide] (H-[βAla][Thr(3ξ)][Dab][Dab][Dab][dF]L[Dab][Dab][Thr(3ξ)]; lactam 4-C)				1 micrograms/mL	8 micrograms/mL	2 micrograms/mL						0.25 micrograms/mL	1 micrograms/mL	0.125 micrograms/mL	>32 micrograms/mL	>32 micrograms/mL	>32 micrograms/mL	0.125 micrograms/mL	2 micrograms/mL		MIC A. baumannii NCTC 13423 (Acinetobacter baumannii [5]): 1 micrograms/mL; MIC P. aeruginosa ATCCCRM-9027 (Pseudomonas aeruginosa [7]): 0.25 micrograms/mL
CC(C)C[C@@H]1NC(=O)[C@@H](Cc2ccccc2)NC(=O)[C@H](CCN)NC(=O)[C@@H](NC(=O)[C@H](CCN)NC(=O)[C@@H](NC(=O)CC[C@@H](N)C(C)C)C(C)O)CCNC(=O)[C@H](C(C)O)NC(=O)[C@H](CCN)NC(=O)[C@H](CCN)NC1=O (stereo partly drawn) [Example 22, 4(R)-Amino-5-methylhexanoyl polymyxin B nonapeptide] (X9-[Thr(3ξ)][Dab][Dab][Dab][dF]L[Dab][Dab][Thr(3ξ)]; lactam 3-C)				0.25 micrograms/mL	4 micrograms/mL	0.5 micrograms/mL						0.125 micrograms/mL	1 micrograms/mL	0.5 micrograms/mL	>32 micrograms/mL	>32 micrograms/mL	>32 micrograms/mL	0.125 micrograms/mL	8 micrograms/mL	>32 micrograms/mL	MIC A. baumannii NCTC 13423 (Acinetobacter baumannii [5]): 0.5 micrograms/mL; MIC P. aeruginosa ATCCCRM-9027 (Pseudomonas aeruginosa [7]): 0.5 micrograms/mL
CC(C)C[C@@H]1NC(=O)[C@@H](Cc2ccccc2)NC(=O)[C@H](CCN)NC(=O)[C@@H](NC(=O)[C@H](CCN)NC(=O)[C@@H](NC(=O)CCC(C)(C)N)C(C)O)CCNC(=O)[C@H](C(C)O)NC(=O)[C@H](CCN)NC(=O)[C@H](CCN)NC1=O (stereo partly drawn) [Example 21, 4-Amino-4-methyl pentanoyl polymyxin B nonapeptide] (X14-[Thr(3ξ)][Dab][Dab][Dab][dF]L[Dab][Dab][Thr(3ξ)]; lactam 3-C)				0.5 micrograms/mL	8 micrograms/mL	0.5 micrograms/mL						0.25 micrograms/mL		0.25 micrograms/mL	>32 micrograms/mL	>32 micrograms/mL	>32 micrograms/mL	<0.06 micrograms/mL	4 micrograms/mL	>32 micrograms/mL	
CC(C)C[C@@H]1NC(=O)[C@@H](Cc2ccccc2)NC(=O)[C@H](CCN)NC(=O)[C@@H](NC(=O)[C@H](CCN)NC(=O)[C@@H](NC(=O)CC[C@@H]2CCCN2)C(C)O)CCNC(=O)[C@H](C(C)O)NC(=O)[C@H](CCN)NC(=O)[C@H](CCN)NC1=O (stereo partly drawn) [Example 23, 3-(S)-(1-pyrrolidin-2-yl)-propionyl polymyxin B nonapeptide] (X13-[Thr(3ξ)][Dab][Dab][Dab][dF]L[Dab][Dab][Thr(3ξ)]; lactam 3-C)				1 micrograms/mL	8 micrograms/mL	1 micrograms/mL						0.25 micrograms/mL		1 micrograms/mL	>32 micrograms/mL	>32 micrograms/mL	>32 micrograms/mL	0.125 micrograms/mL	16 micrograms/mL	>32 micrograms/mL	
